In US9156845B2, “4-(substituted amino)-7H-pyrrolo[2,3-d] pyrimidines as LRRK2 inhibitors” (Pfizer Inc., priority 2012, dated 2015):
pIC50: −log10 of the molar value.

Experiments:
[1] = molecular target: mutant G2019S LRRK2 (Homo sapiens (Human), UniProt Q5S007, G2019S); experiment: LRRK2 Lantha Screen kinase assay, mutant enzyme; assay type: biochemical; details: geometric mean of 2-5 determinations unless otherwise indicated (a: >=6 determinations; b: single determination)
[2] = molecular target: GST-tagged truncated LRRK2 (Homo sapiens (Human), UniProt Q5S007); experiment: LRRK2 Lantha Screen kinase assay; assay type: biochemical; details: geometric mean of 2-5 determinations unless otherwise indicated (a: >=6 determinations; b: single determination); read-out: LRRK2 WT IC50
GST-tagged truncated LRRK2, sequence (Q5S007 970-2527): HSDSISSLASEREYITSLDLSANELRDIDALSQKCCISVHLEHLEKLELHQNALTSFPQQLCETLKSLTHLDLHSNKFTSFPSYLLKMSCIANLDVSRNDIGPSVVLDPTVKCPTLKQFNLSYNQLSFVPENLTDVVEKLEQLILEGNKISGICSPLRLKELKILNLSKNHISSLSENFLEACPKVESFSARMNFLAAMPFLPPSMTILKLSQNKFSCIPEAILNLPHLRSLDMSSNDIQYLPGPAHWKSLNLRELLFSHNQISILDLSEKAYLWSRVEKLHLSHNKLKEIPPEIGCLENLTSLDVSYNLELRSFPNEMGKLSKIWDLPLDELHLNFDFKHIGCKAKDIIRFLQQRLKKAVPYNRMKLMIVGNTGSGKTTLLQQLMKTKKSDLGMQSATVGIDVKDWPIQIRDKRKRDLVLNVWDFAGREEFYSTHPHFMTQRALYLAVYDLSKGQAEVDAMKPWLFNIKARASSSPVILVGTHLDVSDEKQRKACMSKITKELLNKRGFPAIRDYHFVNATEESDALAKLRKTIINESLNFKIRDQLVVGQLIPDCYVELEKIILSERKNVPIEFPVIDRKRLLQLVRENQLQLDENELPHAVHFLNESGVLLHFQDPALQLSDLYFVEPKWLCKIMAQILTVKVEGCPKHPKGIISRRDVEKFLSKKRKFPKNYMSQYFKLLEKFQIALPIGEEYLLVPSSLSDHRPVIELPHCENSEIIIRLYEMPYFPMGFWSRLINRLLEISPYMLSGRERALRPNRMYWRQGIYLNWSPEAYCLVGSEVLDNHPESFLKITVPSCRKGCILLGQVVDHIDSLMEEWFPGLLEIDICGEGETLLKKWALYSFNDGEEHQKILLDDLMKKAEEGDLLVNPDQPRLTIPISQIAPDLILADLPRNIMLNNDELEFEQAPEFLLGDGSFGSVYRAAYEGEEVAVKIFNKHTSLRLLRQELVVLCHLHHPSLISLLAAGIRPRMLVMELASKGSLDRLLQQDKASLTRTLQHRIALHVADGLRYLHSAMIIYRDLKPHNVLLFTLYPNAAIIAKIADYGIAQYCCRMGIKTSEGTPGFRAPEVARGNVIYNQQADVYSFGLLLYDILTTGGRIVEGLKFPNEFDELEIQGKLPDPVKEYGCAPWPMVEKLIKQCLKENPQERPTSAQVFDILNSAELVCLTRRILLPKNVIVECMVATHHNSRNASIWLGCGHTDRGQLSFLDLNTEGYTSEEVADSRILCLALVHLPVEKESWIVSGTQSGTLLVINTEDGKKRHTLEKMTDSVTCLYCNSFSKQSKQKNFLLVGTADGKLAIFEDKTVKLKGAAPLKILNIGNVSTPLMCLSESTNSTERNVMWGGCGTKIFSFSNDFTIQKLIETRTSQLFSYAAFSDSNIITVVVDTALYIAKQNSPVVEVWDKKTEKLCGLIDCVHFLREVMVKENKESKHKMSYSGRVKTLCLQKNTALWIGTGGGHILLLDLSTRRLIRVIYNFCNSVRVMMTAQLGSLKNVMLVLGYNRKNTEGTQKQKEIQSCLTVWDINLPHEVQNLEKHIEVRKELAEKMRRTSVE

mutant G2019S LRRK2, sequence (Q5S007 970-2527 G2019S): as the sequence (Q5S007 970-2527) above, with G1050S counted along it

Compound	pIC50 [1]	pIC50 [2]
C[C@H]1CN(c2ncnc3[nH]cc(-c4cccc(F)c4)c23)CCO1 [Example 182, 5-(3-fluorophenyl)-4-[(2S)-2-methylmorpholin-4-yl]-7H-pyrrolo[2,3-d]pyrimidine]	7.09	7.42
N#Cc1cccc(-c2c[nH]c3ncnc(N4CCCC4)c23)c1F [Example 184, 2-fluoro-3-[4-(pyrrolidin-1-yl)-7H-pyrrolo[2,3-d]pyrimidin-5-yl]benzonitrile]	7.09	7.82
Cc1nc(C2CN(c3ncnc4[nH]cc(-c5cccc(C#N)c5F)c34)CCO2)no1 (stereo not shown) [Example 186, 2-fluoro-3-{4-[2-(5-methyl-1,2,4-oxadiazol-3-yl)morpholin-4-yl]-7H-pyrrolo[2,3-d]pyrimidin-5-yl}benzonitrile]	7.05	7.77
Cc1ccnc(-c2c[nH]c3ncnc(N4CCOCC4)c23)c1 [Example 188, 5-(4-methylpyridin-2-yl)-4-(morpholin-4-yl)-7H-pyrrolo[2,3-d]pyrimidine]	7.05	7.37
Cc1cc(-c2c[nH]c3ncnc(N4CCOCC4)c23)sn1 [Example 192, 5-(3-methyl-1,2-thiazol-5-yl)-4-(morpholin-4-yl)-7H-pyrrolo[2,3-d]pyrimidine]	7.14	7.64
N#Cc1cccc(-c2c(C(F)F)[nH]c3ncnc(N4CCOCC4)c23)c1 [Example 198, 3-[6-(Difluoromethyl)-4-(morpholin-4-yl)-7H-pyrrolo[2,3-d]pyrimidin-5-yl]benzonitrile]	5.97	6.90
C1=C(c2c[nH]c3ncnc(N4CCOCC4)c23)COCC1 [Example 199, 5-(5,6-Dihydro-2H-pyran-3-yl)-4-(morpholin-4-yl)-7H-pyrrolo[2,3-d]pyrimidine]	6.45	7.01
C1=C(c2c[nH]c3ncnc(N4CCOCC4)c23)CCCO1 [Example 200, 5-(3,4-Dihydro-2H-pyran-5-yl)-4-(morpholin-4-yl)-7H-pyrrolo[2,3-d]pyrimidine]	6.78	7.12
c1cc(-c2ncon2)cc(-c2c[nH]c3ncnc(N4CCOCC4)c23)c1 [Example 201, 4-(Morpholin-4-yl)-5-[3-(1,2,4-oxadiazol-3-yl)phenyl]-7H-pyrrolo[2,3-d]pyrimidine]	6.32	6.89
Cc1cc(C2CN(c3ncnc4[nH]cc(-c5cccc(C#N)c5)c34)CCO2)on1 (stereo not shown) [Example 202, 3-{4-[2-(3-Methyl-1,2-oxazol-5-yl)morpholin-4-yl]-7H-pyrrolo[2,3-d]pyrimidin-5-yl}benzonitrile]	6.46	7.19
Cc1c(C#N)cccc1-c1c[nH]c2ncnc(N3CCOCC3)c12 [Example 203, 2-methyl-3-[4-(morpholin-4-yl)-7H-pyrrolo[2,3-d]pyrimidin-5-yl]benzonitrile]	7.05	7.88
N#Cc1cccc(-c2c[nH]c3ncnc(N4CC5COCC5C4)c23)c1 [Example 207, rel-3-{4-[(3aS,6aS)-tetrahydro-1H-furo[3,4-c]pyrrol-5(3H)-yl]-7H-pyrrolo[2,3-d]pyrimidin-5-yl}benzonitrile]	6.16	6.65
N#Cc1cccc(-c2c[nH]c3ncnc(N4CCOC(C#N)C4)c23)c1 (stereo not shown) [Example 209, 4-[5-(3-cyanophenyl)-7H-pyrrolo[2,3-d]pyrimidin-4-yl]morpholine-2-carbonitrile]	6.47	7.37
CC1(C)CN(c2ncnc3[nH]cc(-c4cccc(C#N)c4)c23)CCO1 [Example 210, 3-[4-(2,2-dimethylmorpholin-4-yl)-7H-pyrrolo[2,3-d]pyrimidin-5-yl]benzonitrile]	6.52	7.45
N#Cc1ccc(-c2c[nH]c3ncnc(N4CCOCC4)c23)s1 [Example 211, 5-[4-(morpholin-4-yl)-7H-pyrrolo[2,3-d]pyrimidin-5-yl]thiophene-2-carbonitrile]	6.93	7.66
NC(=O)c1cccc(-c2c[nH]c3ncnc(N4CCOCC4)c23)n1 [Example 215, 6-[4-(morpholin-4-yl)-7H-pyrrolo[2,3-d]pyrimidin-5-yl]pyridine-2-carboxamide]	7.10	7.51
c1cnc2c(-c3c[nH]c4ncnc(N5CCOCC5)c34)cnn2c1 [Example 216, 4-(morpholin-4-yl)-5-(pyrazolo[1,5-a]pyrimidin-3-yl)-7H-pyrrolo[2,3-d]pyrimidine]	6.92	7.45
Cc1nc2sccn2c1-c1c[nH]c2ncnc(N3CCOCC3)c12 [Example 218, 5-(6-methylimidazo[2,1-b][1,3]thiazol-5-yl)-4-(morpholin-4-yl)-7H-pyrrolo[2,3-d]pyrimidine]	6.87	7.43
N#Cc1cccc(-c2c[nH]c3ncnc(N4CCOC(c5ccno5)C4)c23)c1 (stereo not shown) [Example 219, 3-{4-[2-(1,2-oxazol-5-yl)morpholin-4-yl]-7H-pyrrolo[2,3-d]pyrimidin-5-yl}benzonitrile]	6.63	7.43

Now those with a higher pIC50 [1], led by results:

pIC50 [1]	pIC50 [2]	Compound
7.21	8.00	C[C@H]1CN(c2ncnc3[nH]cc(-c4cccc(C#N)c4F)c23)CCO1 [Example 180, 2-fluoro-3-{4-[(2S)-2-methylmorpholin-4-yl]-7H-pyrrolo[2,3-d]pyrimidin-5-yl}benzonitrile]
7.22	7.80	c1nc(N2CCOCC2)c2c(-c3cnc4sccn34)c[nH]c2n1 [Example 205, 5-(imidazo[2,1-b][1,3]thiazol-5-yl)-4-(morpholin-4-yl)-7H-pyrrolo[2,3-d]pyrimidine]
7.29	7.33	COc1ccc(F)c(Cl)c1-c1c[nH]c2ncnc(N3CCOCC3)c12 [Example 193, 5-(2-chloro-3-fluoro-6-methoxyphenyl)-4-(morpholin-4-yl)-7H-pyrrolo[2,3-d]pyrimidin]
7.38	8.05	N#Cc1cccc(-c2c[nH]c3ncnc(N4CCCC(O)C4)c23)c1F (stereo not shown) [Example 178, 2-fluoro-3-[4-(3-hydroxypiperidin-1-yl)-7H-pyrrolo[2,3-d]pyrimidin-5-yl]benzonitrile]
7.47	7.60	COc1cccc(F)c1-c1c[nH]c2ncnc(N3CCOCC3)c12 [Example 190, 5-(2-fluoro-6-methoxyphenyl)-4-(morpholin-4-yl)-7H-pyrrolo[2,3-d]pyrimidine]
7.49	7.93	O=c1cc(-c2c[nH]c3ncnc(N4CCOCC4)c23)cc[nH]1 [Example 204, 4-[4-(morpholin-4-yl)-7H-pyrrolo[2,3-d]pyrimidin-5-yl]pyridin-2(1H)-one]
7.52	7.72	COc1ccc(F)cc1-c1c[nH]c2ncnc(N3CCO[C@@H](C)C3)c12 [Example 179, 5-(5-fluoro-2-methoxyphenyl)-4-[(2S)-2-methylmorpholin-4-yl]-7H-pyrrolo[2,3-d]pyrimidine]
7.57	7.40	COc1cccc(F)c1-c1c[nH]c2ncnc(N(C)C)c12 [Example 189, 5-(2-fluoro-6-methoxyphenyl)-N,N-dimethyl-7H-pyrrolo[2,3-d]pyrimidin-4-amine]
7.62	7.66	COc1ccc(F)cc1-c1c[nH]c2ncnc(N3CCCC(F)C3)c12 (stereo not shown) [Example 181, 5-(5-fluoro-2-methoxyphenyl)-4-(3-fluoropiperidin-1-yl)-7H-pyrrolo[2,3-d]pyrimidine]
7.64	7.82	COc1ccc(F)cc1-c1c[nH]c2ncnc(N3CC[C@H](F)C3)c12 [Example 185, 5-(5-fluoro-2-methoxyphenyl)-4-[(3S)-3-fluoropyrrolidin-1-yl]-7H-pyrrolo[2,3-d]pyrimidine]
7.83	8.13	Cn1cc(-c2c[nH]c3ncnc(N4CCOCC4)c23)nc1C#N [Example 220, 1-methyl-4-[4-(morpholin-4-yl)-7H-pyrrolo[2,3-d]pyrimidin-5-yl]-1H-imidazole-2-carbonitrile]
7.91	8.20	c1cnn2c(-c3c[nH]c4ncnc(N5CCOCC5)c34)cnc2c1 [Example 212, 5-(imidazo[1,2-b]pyridazin-3-yl)-4-(morpholin-4-yl)-7H-pyrrolo[2,3-d]pyrimidine]
7.96	7.89	COc1ccc(F)cc1-c1c[nH]c2ncnc(N(C)C)c12 [Example 183, 5-(5-fluoro-2-methoxyphenyl)-N,N-dimethyl-7H-pyrrolo[2,3-d]pyrimidin-4-amine]
